# Measurements as given in patent US20230181464A1, “COMPOSITIONS FOR DELIVERY OF BIOACTIVE AGENTS INTO HAIR FOLLICLES” (FOLLICLE PHARMA LTD, priority 2020, published 2023).
# Like-named read-outs stand apart in the source and are kept apart here.
# Tests used:
# [1] = cited from earlier work
# C57bl mice [2] = assay: Testosterone-induced alopecia model in mice, hair cover (Example 2); type: in vivo; details: oral, 100 uL once daily; testosterone-injected mice
# C57bl mice [3] = assay: Testosterone-induced alopecia in mice, hair cover over 28 d (Example 3); type: in vivo; details: oral once daily
# Method: (§1) Hair on the backs of C57bl mice were shaved with electric clippers and subsequent application of ‘hair removal cream’ (Veet, Oxy Reckit Benckiser, Chartes, France). Twenty-four hours following hair removal, mice received daily subcutaneous injections of Testosterone, 1 mg/mouse, at the neck region. Twenty-four hours after the first Testosterone injection mice started receiving treatment as per Table 6 below. Topical formulations were applied onto the entire shaved back skin. The hair cover was analyzed by ImagJ software.
# [4] = test system: DHT (dihydrotestosterone); assay: Skin DHT expression at Day 28 (Example 3); type: in vivo, mice
# Method: as §1
# [5] = Blood concentration of dutasteride at Day 28 (Example 3); type: in vivo; details: C57bl, mice, Oral, daily dose 5-10 ug/mouse, read-out: Blood conc (ng/ml) of dutasteride
# [6] = Human, 0.5 mg PO, from the literature; cited from earlier work
# [7] = drug substance listed in Table 16
smiles,measurement,setting,value
N#CC[C@H](C1CCCC1)n1cc(-c2ncnc3[nH]ccc23)cn1 [Ruxolitinib],logP,[1],"Ruxolitinib logP, 2.48"
"CC(C)(C)NC(=O)[C@H]1CC[C@H]2[C@@H]3CC[C@H]4NC(=O)C=C[C@]4(C)[C@H]3CC[C@]12C [Oral finasteride, finasteride]",% hair cover at 21 days,C57bl mice [2],20%
C1=C/COCc2cc(ccc2OCCN2CCCC2)Nc2nccc(n2)-c2cccc(c2)COC/1 [Pacritinib],logP,[1]; [7],logP 4.58
CC(=O)Oc1c(C)c(C)c2c(c1C)CCC(C)(CCC[C@H](C)CCC[C@H](C)CCCC(C)C)O2 (some centres unmarked) [Tocopherol acetate],logP,[1]; [7],acetate LogP 10.8
C[C@]12C=CC(=O)N[C@@H]1CC[C@@H]1[C@@H]2CC[C@]2(C)[C@@H](C(=O)Nc3cc(C(F)(F)F)ccc3C(F)(F)F)CC[C@@H]12 [dutasteride],% hair cover at 21 days,C57bl mice [2],30%
same,Group Mean Hair cover (%),C57bl mice [3]; Study Day 0,0.0%
same,Group Mean Hair cover (%),C57bl mice [3]; Study Day 7,0.0%
same,Group Mean Hair cover (%),C57bl mice [3]; Study Day 14,2.3%
same,Group Mean Hair cover (%),C57bl mice [3]; Study Day 21,5.2%
same,Group Mean Hair cover (%),C57bl mice [3]; Study Day 28,22.3%
same,DHT expression in the skin (in words),[4]; mice,did not exhibit reduced concentrations of DHT in the skin
same,Mean DHT conc. (nmol/L)/group,"[4]; skin, oral 5-10 ug/mouse x 1/d",22.91 nmol/L
same,concentration at 28 day,[5],39 ng/mL
same,Plasma Concentration of Dutasteride,[6],23.60 ng/mL
O=C(OOC(=O)c1ccccc1)c1ccccc1 [Benzoyl peroxide],logP,[1]; [7],LogP 2.75
CCOC(=O)c1ccc(C#Cc2ccc3c(c2)C(C)(C)CCS3)nc1 [Tazarotene],logP,[1]; [7],logP 5.6
O=C(Nc1c(Cl)cncc1Cl)c1ccc(OC(F)F)c(OCC2CC2)c1 [Roflumilast],logP,[1]; [7],logP 4.47
